ChEMBL document CHEMBL4229480, “Terpenoids with vasorelaxant effects from the Chinese liverwort Scapania carinthiaca” (Bioorg Med Chem, 2018)
Counter-ions that a name gives are not always drawn. Activity calls are given as the source filed them. No cut-off for these calls is given here.

Columns and labels:
PC-3 = assay: Cytotoxicity against human PC3 cells after 24 hrs by MTT assay; format: functional, cell-based; details: PC-3, 24 h
A549 = assay: Cytotoxicity against human A549 cells after 24 hrs by MTT assay; format: functional, cell-based; details: A549, 24 h
MCF7 = assay: Cytotoxicity against human MCF7 cells after 24 hrs by MTT assay; format: functional, cell-based; details: MCF7, 24 h
[1] = biological target: Voltage-gated L-type calcium channel (Rattus norvegicus, UniProt P22002+Q02485+P27732); assay: Inhibition of voltage-dependent L-type calcium channel in Wistar rat 3rd-order mesenteric artery assessed as reduction in norepinephrine-induced vessel contraction by myographic method; details: for inhibition (INH): rat
Mus musculus [2] = organism: Mus musculus; assay: Vasorelaxant activity in mouse MOVAS1 cells assessed as reduction in KCl-induced increase in intracellular calcium level at 0.1 to 0.5 uM pretreated for 10 mins followed by KCl addition by Fluo-3/AM dye based laser scanning microscopic method; format: functional, cell-based
L-type calcium channel [3] = biological target: T1, L-type calcium channel (Mus musculus, UniProt Q01815+Q02789+Q99246+Q9JIS7); assay: Inhibition of voltage-dependent L-type calcium channel in mouse MOVAS cells assessed as reduction in KCl/extracellular Ca2+-induced increase in intracellular calcium level pretreated for 10 mins followed by KCl addition by Fluo-3/AM dye based flow cytometry; format: cell-based
Mus musculus [4] = organism: Mus musculus; assay: Vasorelaxant activity in mouse MOVAS1 cells assessed as reduction in KCl-induced increase in intracellular calcium level at 0.1 to 0.5 uM pretreated for 10 mins followed by KCl addition by Fluo-3/AM dye based flow cytometry; format: functional, cell-based
Artery = assay: Vasorelaxant activity in Wistar rat endothelium-denuded 3rd-order mesenteric artery assessed as reduction in norepinephrine-induced vessel contraction by myographic method; format: functional, tissue-based
L-type calcium channel [5] = biological target: T1, L-type calcium channel; assay: Inhibition of voltage-dependent L-type calcium channel in mouse MOVAS cells assessed as reduction in KCl/extracellular Ca2+-induced increase in intracellular calcium level at 0.1 to 0.5 uM pretreated for 10 mins followed by KCl addition by Fluo-3/AM dye based laser scanning microscopic method; format: cell-based

| Structure (SMILES) | IC50 (PC-3) [µM] | IC50 (A549) [µM] | IC50 (MCF7) [µM] | EC50 [1] [µM] | inhibition (INH) [1] | Activity (Mus musculus [2]) | inhibition (INH) (L-type calcium channel [3]) | Activity (Mus musculus [4]) | %max (Artery) [%] | EC50 (Artery; Rattus norvegicus, Wistar, Artery) [µM] | inhibition (INH) (L-type calcium channel [5]) |
| --- | --- | --- | --- | --- | --- | --- | --- | --- | --- | --- | --- |
| CC(C)=CC(=O)C[C@@]1(C)[C@@H]2[C@H]3[C@@H](C)CC[C@]3(O)[C@@H](C)CC[C@@H]21 | 13.1 | 20.8 | 15.1 |  |  |  |  |  |  |  |  |
| CCOC1C=C(CC[C@]2(C)[C@@H](C)CC[C@@]3(C)C(C(=O)O)=CCC[C@@H]23)C(=O)O1 (stereo partly specified) | > 40 | > 40 | > 40 |  |  |  |  |  |  |  |  |
| C=C1CC[C@H](C)[C@@](C)(CCC2=CCOC2=O)C/C=C\C=C/1C(=O)O | > 40 | > 40 | > 40 | 14 | Dose-dependent effect |  |  |  |  |  |  |
| C=C1CC[C@H](C)[C@@](C)(CCC2=CC(O)OC2=O)C/C=C\C=C/1C(=O)O (stereo partly specified) | > 40 | > 40 | > 40 | 4.1 | Dose-dependent effect |  |  |  |  |  |  |
| CCOC1C=C(CC[C@]2(C)[C@@H](C)CC[C@@]3(C)C(C(=O)O)=CC=C[C@@H]23)C(=O)O1 (stereo partly specified) | > 40 | > 40 | > 40 | 14 | Dose-dependent effect |  |  |  |  |  |  |
| C[C@H]1CC[C@@]2(C)C(C(=O)O)=CCC[C@H]2[C@]1(C)CCC1=CCOC1=O | > 40 | > 40 | > 40 | 7.3 | Dose-dependent effect |  |  |  |  |  |  |
| C=C1C(=O)[C@@]23C[C@@H]1CC[C@@H]2[C@@]1(C)CCCC(C)(C)[C@@H]1COC3=O | 11.5 | 2.3 | 6.6 |  |  |  |  |  |  |  |  |
| COc1cccc2c1C(=O)c1c(O)c3c(c(O)c1C2=O)C[C@@](O)(C(=O)CO)C[C@@H]3O[C@H]1C[C@H](N)[C@H](O)[C@H](C)O1 [DOXORUBICIN HYDROCHLORIDE] | 0.8 | 0.1 | 0.4 |  |  |  |  |  |  |  |  |
| CC1(C)[C@@H]2[C@@H]3[C@H](CC[C@@]3(C)O)[C@@](C)(O)CC[C@@H]21 | > 40 | > 40 | > 40 |  |  |  |  |  |  |  |  |
| CC1(C)[C@@H]2[C@H]3[C@H](CC[C@@]3(C)O)[C@](O)(CO)CC[C@@H]21 | > 40 | > 40 | > 40 |  |  |  |  |  |  |  |  |
| C=C1CC[C@H](C)[C@@](C)(CCC2=CC(OCC)OC2=O)C/C=C\C=C/1C(=O)O (stereo partly specified) | > 40 | > 40 | > 40 | 12 | Dose-dependent effect | inactive | Dose-dependent effect | inactive | 20 | 37 | Active |
| C=C1C(=O)O[C@H]2C[C@]3(C)CC[C@H](O)C(C)=C3C[C@@H]12 | > 40 | > 40 | > 40 |  |  |  |  |  |  |  |  |
| C=C1CC[C@H](C)[C@@](C)(CCC2=CC(OC)OC2=O)C/C=C\C=C/1C(=O)O (stereo partly specified) | > 40 | > 40 | > 40 | 22 | Dose-dependent effect |  |  |  |  |  |  |
| C=C1C(=O)O[C@H]2C[C@]3(C)CCC=C(C)[C@H]3C[C@@H]12 | > 40 | > 40 | > 40 |  |  |  |  |  |  |  |  |
| CC1(C)[C@@H]2[C@@H]3[C@H](CC[C@@]3(C)O)C(=O)CC[C@@H]21 | > 40 | > 40 | > 40 |  |  |  |  |  |  |  |  |
| C=C(C)[C@H]1C[C@H]2C(=C)CCC[C@]2(C)C[C@@H]1O | > 40 | > 40 | > 40 |  |  |  |  |  |  |  |  |
